# Patent publication US8343959B2, “N-phenyl-(piperazinyl or homopiperazinyl)-benzenesulfonamide or benzenesulfonyl-phenyl-(piperazine or homopiperazine) compounds suitable for treating disorders that respond to modulation of the serotonin 5-HT6 receptor” (Abbott GmbH & Co. KG, priority 2009, dated 2013)
# Structures can show the parent of a compound that is named as a salt.
# Molecular target: T1, h-5-HT6 receptor (Homo sapiens, UniProt P50406)
# T1 construct: expressed in transfected cells
# Assay: 5-HT6 receptor binding assay (displacement of [3H]-LSD)
# Conditions: membranes of HEK293 cells expressing h-5-HT6 receptor, 1 nM [3H]-LSD; read-out: Ki (5HT6)
# Method: Displacement of Radioligands Binding to The Following Cloned Human Receptors
# Cells from stable clonal cell lines expressing the corresponding receptor (5-HT6, α1-adrenergic, dopamine D2 or histamine H1 receptors) were washed with PBS (w/o Ca^++, Mg^++) and harvested in PBS with 0.02% EDTA. The cells were collected by centrifugation at 500 g for 10 min. at 4° C., washed with PBS and centrifuged (500 g, 10 min. 4° C.). The pellets were stored at −80° C. until use. For membrane preparation, the thawed cell pellet was resuspended in ice-cold sucrose buffer (0.25 M sucrose, 10 mM Hepes (pH 7.4), 1 mM Phenylmethylsulfonyl fluoride (PMSF) in DMSO, 5 μg/ml Pepstatin-A, 3 mM EDTA, 0.025% Bacitracin) and homogenized with a Branson Sonifier W-250 (Settings: Timer 4; Output Control 3; Duty Cycle constant; 2 to 3 cycles). Cell disruption was checked with the aid of a microscope. Remaining unbroken cells were pelleted at 1.000 g for 10 min. at 4° C. The sucrose buffer supernatant was then centrifuged at 60.000 g for 1 h at 4° C. (Beckman Ultrazentrifuge XL 80). The pellet was resuspended in 30 ml ice-cold Tris buffer (20 mM TRIS (pH 7.4), 5 μg/ml Pepstatin A, 0.1 mM PMSF, 3 mM EDTA) by pipetting through a 10 ml serological pipet and centrifuged for 1 h at 4° C. at 60.000 g. A final resuspension was performed in a small volume of ice-cold Tris buffer (see above) by pressing through a serological pipet followed by ultrasonic treatment with a Branson Sonifier W-250 (Settings: Timer 1; Output Control 3; Duty Cycle constant; 1 cycle). Protein concentration was determined (BCA-Kit; Pierce) and aliquots stored at −80° C. or in liquid nitrogen for long-term storage.
# All receptor binding experiments were carried out in the corresponding assay buffer in a total volume of 200 μl in the presence of various concentrations of test compound (10^−5 M to 10^−9 M, tenfold serial dilution, duplicate determinations). The assays were terminated by filtration on polyethylenimine (PEI 0.1% or 0.3%) presoaked Packard Unifilter Plates (GF/C or GF/B) with a Tomtec Machin U 96 well-plate harvester. After the plates had been dried for 2 h at 55° C. in a drying chamber scintillation cocktail (BetaPlate Scint; PerkinElmer) was added. Radioactivity was measured in a Microbeta Trilux two hours after the addition of the scintillation mixture. Data derived from liquid scintillation counting were analysed by iterative non-linear regression analysis with the use of the Statistical Analysis System (SAS): a program similar to “LIGAND” as described by Munson and Rodbard (Analytical Biochemistry 107, 220-239 (1980).
# HEK293 cells stably expressing the h-5-HT6 receptor (NCBI Reference Sequence XM 001435) were cultured in RPMI1640 medium supplemented with 25 mM HEPES, 10% fetal calf serum and 1-2 mM glutamine. The membrane preparation was performed as described in section 1. […] Non-specific binding was defined with 1 μM methiothepin. The binding reaction was carried out for 3.5 h at room temperature. During the incubation, the plates were shaken on a plate shaker at 100 rpm and terminated by filtration on Packard Unifilter GF/C (0.1% PEI) plates, followed by 2 wash cycles with ice-cold 50 mM Tris-HCl, 5 mM CaCl2.
# Data derived from liquid scintillation counting were analyzed by iterative non-linear regression analysis with the use of the Statistical Analysis System (SAS): a program similar to “LIGAND” as described by Munson and Rodbard (Anal. Biochem. 1980, 107, 220-239). Fitting was performed according to formulae described by Feldman (Anal. Biochem. 1972, 48, 317-338). IC50, nH and Ki values were expressed as geometrical mean.
# T1 sequence (P50406 whole entry): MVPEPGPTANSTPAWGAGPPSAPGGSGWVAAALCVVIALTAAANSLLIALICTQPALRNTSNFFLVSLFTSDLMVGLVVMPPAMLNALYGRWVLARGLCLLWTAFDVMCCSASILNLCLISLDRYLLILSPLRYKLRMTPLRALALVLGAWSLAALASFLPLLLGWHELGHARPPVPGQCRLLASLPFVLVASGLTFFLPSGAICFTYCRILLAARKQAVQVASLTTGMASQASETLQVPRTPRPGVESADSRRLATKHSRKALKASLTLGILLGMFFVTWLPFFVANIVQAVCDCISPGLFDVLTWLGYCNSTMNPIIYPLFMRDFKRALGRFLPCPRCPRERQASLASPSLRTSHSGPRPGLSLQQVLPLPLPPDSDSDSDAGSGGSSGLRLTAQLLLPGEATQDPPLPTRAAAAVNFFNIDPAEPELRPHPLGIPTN
row,SMILES,Ki [nM]
1,"Cc1ccc(S(=O)(=O)Nc2ccc(F)cc2OC(F)F)cc1N1CCNCC1 [Example 74, N-(2-Difluoromethoxy-4-fluoro-phenyl)-4-methyl-3-piperazin-1-yl-benzenesulfonamide hydrochloride]",< 50
2,"Cc1ccc(NS(=O)(=O)c2ccc(C)c(N3CCN(C)CC3)c2)cc1OC(F)F [Example 75, N-(3-Difluoromethoxy-4-methyl-phenyl)-4-methyl-3-(4-methyl-piperazin-1-yl)-benzenesulfonamide hydrochloride]",< 50
3,"COc1cc(NS(=O)(=O)c2ccc(C)c(N3CCNCC3)c2)ccc1OC(F)F [Example 76, N-(4-Difluoromethoxy-3-methoxy-phenyl)-4-methyl-3-piperazin-1-yl-benzenesulfonamide]",< 50
4,"COc1ccc(OC(F)F)cc1NS(=O)(=O)c1ccc(C)c(N2CCN(C)CC2)c1 [Example 77, N-(5-Difluoromethoxy-2-methoxy-phenyl)-4-methyl-3-(4-methyl-piperazin-1-yl)-benzenesulfonamide trifluoroacetate]",< 50
5,"COc1ccc(OC(F)F)c(NS(=O)(=O)c2ccc(C)c(N3CCN(C)CC3)c2)c1 [Example 78, N-(2-Difluoromethoxy-5-methoxy-phenyl)-4-methyl-3-(4-methyl-piperazin-1-yl)-benzenesulfonamide trifluoroacetate]",< 50
6,"Cc1ccc(S(=O)(=O)Nc2ccc(F)cc2OC(F)F)cc1N1CCN(C)CC1 [Example 79, N-(2-Difluoromethoxy-4-fluoro-phenyl)-4-methyl-3-(4-methyl-piperazin-1-yl)-benzenesulfonamide trifluoroacetate]",< 50
7,"COc1ccc(OC(F)F)cc1NS(=O)(=O)c1ccc(C)c(N2CCNCC2)c1 [Example 80, N-(5-Difluoromethoxy-2-methoxy-phenyl)-4-methyl-3-piperazin-1-yl-benzenesulfonamide trifluoroacetate]",< 50
8,"COc1ccc(OC(F)F)c(NS(=O)(=O)c2ccc(C)c(N3CCNCC3)c2)c1 [Example 81, N-(2-Difluoromethoxy-5-methoxy-phenyl)-4-methyl-3-piperazin-1-yl-benzenesulfonamide hydrochloride]",< 50
9,"Cc1ccc(S(=O)(=O)Nc2ccc3c(c2)OC(F)(F)O3)cc1N1CCNCC1 [Example 84, N-(2,2-Difluoro-benzo[1,3]dioxol-5-yl)-4-methyl-3-piperazin-1-yl-benzenesulfonamide hydrochloride]",< 50
10,"COc1ccc(NS(=O)(=O)c2ccc(C)c(N3CCNCC3)c2)cc1OC(F)F [Example 85, N-(3-Difluoromethoxy-4-methoxy-phenyl)-4-methyl-3-piperazin-1-yl-benzenesulfonamide hydrochloride]",< 500
11,"COc1ccc(NS(=O)(=O)c2ccc(C)c(N3CCN(C)CC3)c2)cc1OC(F)F [Example 86, N-(3-Difluoromethoxy-4-methyoxy-phenyl)-4-methyl-3-(4-methyl-piperazin-1-yl)-benzenesulfonamide hydrochloride]",< 500
12,"Cc1cc(NS(=O)(=O)c2ccc(C)c(N3CCN(C)CC3)c2)ccc1OC(F)F [Example 87, N-(4-Difluoromethoxy-3-methyl-phenyl)-4-methyl-3-(4-methyl-piperazin-1-yl)-benzenesulfonamide hydrochloride]",< 50
13,"Cc1ccc(S(=O)(=O)Nc2ccc(OC(F)F)cc2)cc1N1CCN(C)CC1 [Example 88, N-(4-Difluoromethoxy-phenyl)-4-methyl-3-(4-methyl-piperazin-1-yl)-benzenesulfonamide hydrochloride]",< 500
14,"COc1cc(NS(=O)(=O)c2ccc(OC)c(N3CCN(C)CC3)c2)ccc1OC(F)F [Example 90, N-(4-Difluoromethoxy-3-methoxy-phenyl)-4-methoxy-3-(4-methyl-piperazin-1-yl)-benzenesulfonamide]",< 50
15,"Cc1ccc(NS(=O)(=O)c2ccc(C)c(N3CCN(C)CC3)c2)c(OC(F)F)c1 [Example 91, N-(2-Difluoromethoxy-4-methyl-phenyl)-4-methyl-3-(4-methyl-piperazin-1-yl)-benzenesulfonamide hydrochloride]",< 50
16,"Cc1ccc(OC(F)F)c(NS(=O)(=O)c2ccc(C)c(N3CCN(C)CC3)c2)c1 [Example 92, N-(2-Difluoromethoxy-5-methyl-phenyl)-4-methyl-3-(4-methyl-piperazin-1-yl)-benzenesulfonamide hydrochloride]",< 10
17,"COc1cc(NS(=O)(=O)c2ccc(OC)c(N3CCNCC3)c2)ccc1OC(F)F [Example 93, N-(4-Difluoromethoxy-3-methoxy-phenyl)-4-methoxy-3-piperazin-1-yl-benzenesulfonamide hydrochloride]",< 10
18,"Cc1ccc(S(=O)(=O)Nc2cccc(OC(F)F)c2)cc1N1CCN(C)CC1 [Example 94, N-(3-Difluoromethoxy-phenyl)-4-methyl-3-(4-methyl-piperazin-1-yl)-benzenesulfonamide hydrochloride]",< 10

# Other lines, results leading:
row,Ki [nM],SMILES
1,< 10,"COc1ccc(S(=O)(=O)Nc2cc(C)ccc2OC(F)F)cc1N1CCN(C)CC1 [Example 67, N-(2-Difluoromethoxy-5-methyl-phenyl)-4-methoxy-3-(4-methyl-piperazin-1-yl)-benzenesulfonamide hydrochloride]"
2,< 10,"O=S(=O)(Nc1cccc(OC(F)F)c1)c1cccc(N2CCNCC2)c1 [Example 68, N-(3-Difluoromethoxy-phenyl)-3-piperazin-1-yl-benzenesulfonamide hydrochloride]"
3,< 10,"COc1ccc(S(=O)(=O)Nc2ccc(F)cc2OC(F)F)cc1N1CCN(C)CC1 [Example 69, N-(2-Difluoromethoxy-4-fluoro-phenyl)-4-methoxy-3-(4-methyl-piperazin-1-yl)-benzenesulfonamide hydrochloride]"
4,< 10,"COc1ccc(S(=O)(=O)Nc2ccc(C)cc2OC(F)F)cc1N1CCN(C)CC1 [Example 70, N-(2-Difluoromethoxy-4-methyl-phenyl)-4-methoxy-3-(4-methyl-piperazin-1-yl)-benzenesulfonamide hydrochloride]"
5,< 10,"Cc1ccc(S(=O)(=O)Nc2cc(Cl)ccc2OC(F)F)cc1N1CCNCC1 [Example 71, N-(5-Chloro-2-difluoromethoxy-phenyl)-4-methyl-3-piperazin-1-yl-benzenesulfonamide hydrochloride]"
6,< 10,"COc1ccc(S(=O)(=O)Nc2cc(C)ccc2OC(F)F)cc1N1CCNCC1 [Example 72, N-(2-Difluoromethoxy-5-methyl-phenyl)-4-methoxy-3-piperazin-1-yl-benzenesulfonamide hydrochloride]"
7,< 10,"COc1ccc(S(=O)(=O)Nc2ccc(C)cc2OC(F)F)cc1N1CCNCC1 [Example 73, N-(2-Difluoromethoxy-4-methyl-phenyl)-4-methoxy-3-piperazin-1-yl-benzenesulfonamide hydrochloride]"
8,< 10,"COc1ccc(S(=O)(=O)Nc2ccc(F)cc2OC(F)F)cc1N1CCNCC1 [Example 82, N-(2-Difluoromethoxy-4-fluoro-phenyl)-4-methoxy-3-piperazin-1-yl-benzenesulfonamide hydrochloride]"
9,< 10,"COc1ccc(S(=O)(=O)Nc2ccc3c(c2)OC(F)(F)O3)cc1N1CCNCC1 [Example 83, N-(2,2-Difluoro-benzo[1,3]dioxol-5-yl)-4-methoxy-3-piperazin-1-yl-benzenesulfonamide hydrochloride]"
10,< 10,"COc1ccc(S(=O)(=O)Nc2ccc(C)c(OC(F)F)c2)cc1N1CCN(C)CC1 [Example 89, N-(3-Difluoromethoxy-4-methyl-phenyl)-4-methoxy-3-(4-methyl-piperazin-1-yl)-benzenesulfonamide hydrochloride]"
